In assay [1] the target is laminin/nidogen binding (radioactively labeled nidogen to laminin P1-coated tubes). Description: coated-tube inhibition assay, sequential inhibition. Set-up: species or system human. The method, then:
(§1) The inhibitory activity of the affinity-purified antibodies can be identified by means of a coated-tube assay which measures the binding of radioactively labeled nidogen to (human placental) laminin P1-coated tubes in the presence of the antibodies.
(§2) Recombinantly produced human nidogen (35 μg, for description of the clone and culturing and purification conditions, see Mayer, U. et al. (1995) Eur. J. Biochem. 227:681-686) was dissolved in 250 μl of PBS, and 0.405 mCi (=15 Mbq) of Na iodide (^125I) solution (=1.55 μl, Nordion Europe), 10 μl of 0.5 M Na phosphate, pH 7.4, and 40 μg of chloramine T (N-chloro-4-toluenesulfonamide sodium salt, Merck) in 100 μl of 0.05 M Na phosphate, pH 7.4, were added to the solution. The reaction took place for 60 seconds at room temperature and was stopped by adding a solution of 40 μg of Na metabisulfite (Riedel-de-Haen) in 100 μl of 0.05 M Na phosphate, pH 7.4. This addition was made in at most 30 seconds and 900 μl of 1% BSA (Sigma) in PBS were then added to the mixture. Free radioactivity and excess salts were separated off by means of molecular sieve chromatography using a PD 10 column (Pharmacia). The iodinated nidogen, which was eluted in PBS, was pooled and diluted with 1% BSA/0.05 M Na phosphate/0.01% Na azide, pH 7.4, such that a concentration of 50 ng/ml was obtained. […]
Inhibition assay using “laminin-mimetic” structures (sequential inhibition) 200 μl of iodinated nidogen (approx. 10 ng, approx. 40,000 counts per min) and 200 μl of the inhibitor (e.g. peptides which can be derived from the laminin γ1 III 4 domain) or standards (laminin γ1 III 3-5) were shaken in a reaction vessel at room temperature. […] Finally, the solution was tipped out and the tubes were washed twice with 1 ml of PBS/0.04% Tween 20, after which the bound radioactivity (nidogen) was measured in a gamma counter. The quantity of bound nidogen in the solutions containing inhibitor was related to that of the nidogen when no inhibitor was added. […]

For assay [2] the target is unchanged. Description: coated-tube inhibition assay, simultaneous inhibition. Also noted: species or system human. The following applies: simultaneous assay type. The method, then:
as §1, §2
Target sequence in this assay (P11047 773-934 limits assumed, one chain of several): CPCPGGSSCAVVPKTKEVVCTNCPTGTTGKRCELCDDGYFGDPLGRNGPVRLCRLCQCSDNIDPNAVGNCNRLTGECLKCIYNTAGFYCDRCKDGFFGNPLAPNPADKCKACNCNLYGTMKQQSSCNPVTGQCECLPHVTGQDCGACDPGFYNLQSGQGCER

For the next assay, the system named is laminin P1. In words: BIAcore binding kinetics on immobilized laminin P1. The following applies: 20 μg/ml; matrix with 4000 RU laminin P1. From the text: Biospecific interactions can be monitored on-line using the BIAcore® system from Pharmacia Biosensor. The principle of the measurement is based on an optical phenomenon (surface plasmon resonance) which is affected by the mass which is bound on a gold film. Expressed in simple terms, the system is miniaturized affinity chromatography on a gold sensor surface. The quantity of specifically bound ligand can be depicted visually in the form of a resonance signal (Chaiken, I. et al. (1992) Anal. Biochem. 201:197-201; Karisson, R. et al. (1992) in: Structure of Antigens; (Ed.: van Regenmortel). pp. 127-148; CRC Press, Boca Raton, Fla.)
Chain of laminin P1 (P11047 773-934 limits assumed): as the sequence (P11047 773-934 limits assumed, one chain of several) above
Laminin P1 was immobilized, at a concentration of 200 μg/ml in 10 mM Na acetate, pH 4.0, on the sensor chip in accordance with the instructions in the user manual. A matrix containing 4000 RU of bound laminin P1 is obtained. A double impulse of in each case 4 μl of 100 mM HCl can be carried out in order to regenerate the affinity matrix.
The fact that it was still not possible to observe any transition to the equilibrium state after 1400 seconds can be an expression of the fact that the specific peptide sequence of laminin P1 which is responsible for binding nidogen was readily available to the antibodies. The antibodies bound to this sequence irrespective of whether it was in the biologically active conformation or in a different conformation. […]
Background: SPR reads the build-up and loss of mass on a sensor chip optically.

[3] abbreviates: sequential assay type, read-out: IC50% inhibition of laminin/nidogen binding.

For “DNIDPNAVGNLKCIYNTAGFYCDR [(2), peptide used for immunization]”, the IC50 in assay [1] (setting [3]) and in assay [2] was 20 µM throughout.
“DNIDPNAVGNL [(1), peptide used for immunization]”: the IC50 in assay [1] (in the assay described here, shortened incubation times, variant not stated, read-out: IC50%) was determined as 60 µM; in assay [1] (setting [3]), 60 µM; in assay [2], 60 µM.

B1: nidogen: recombinantly produced human nidogen, 160 kDa glycoprotein (protein, UniProt P14543 29-1247, looked up)
Nidogen-1: LSRQELFPFGPGQGDLELEDGDDFVSPALELSGALRFYDRSDIDAVYVTTNGIIATSEPPAKESHPGLFPPTFGAVAPFLADLDTTDGLGKVYYREDLSPSITQRAAECVHRGFPEISFQPSSAVVVTWESVAPYQGPSRDPDQKGKRNTFQAVLASSDSSSYAIFLYPEDGLQFHTTFSKKENNQVPAVVAFSQGSVGFLWKSNGAYNIFANDRESVENLAKSSNSGQQGVWVFEIGSPATTNGVVPADVILGTEDGAEYDDEDEDYDLATTRLGLEDVGTTPFSYKALRRGGADTYSVPSVLSPRRAATERPLGPPTERTRSFQLAVETFHQQHPQVIDVDEVEETGVVFSYNTDSRQTCANNRHQCSVHAECRDYATGFCCSCVAGYTGNGRQCVAEGSPQRVNGKVKGRIFVGSSQVPIVFENTDLHSYVVMNHGRSYTAISTIPETVGYSLLPLAPVGGIIGWMFAVEQDGFKNGFSITGGEFTRQAEVTFVGHPGNLVIKQRFSGIDEHGHLTIDTELEGRVPQIPFGSSVHIEPYTELYHYSTSVITSSSTREYTVTEPERDGASPSRIYTYQWRQTITFQECVHDDSRPALPSTQQLSVDSVFVLYNQEEKILRYALSNSIGPVREGSPDALQNPCYIGTHGCDTNAACRPGPRTQFTCECSIGFRGDGRTCYDIDECSEQPSVCGSHTICNNHPGTFRCECVEGYQFSDEGTCVAVVDQRPINYCETGLHNCDIPQRAQCIYTGGSSYTCSCLPGFSGDGQACQDVDECQPSRCHPDAFCYNTPGSFTCQCKPGYQGDGFRCVPGEVEKTRCQHEREHILGAAGATDPQRPIPPGLFVPECDAHGHYAPTQCHGSTGYCWCVDRDGREVEGTRTRPGMTPPCLSTVAPPIHQGPAVPTAVIPLPPGTHLLFAQTGKIERLPLEGNTMRKTEAKAFLHVPAKVIIGLAFDCVDKMVYWTDITEPSIGRASLHGGEPTTIIRQDLGSPEGIAVDHLGRNIFWTDSNLDRIEVAKLDGTQRRVLFETDLVNPRGIVTDSVRGNLYWTDWNRDNPKIETSYMDGTNRRILVQDDLGLPNGLTFDAFSSQLCWVDAGTNRAECLNPSQPSRRKALEGLQYPFAVTSYGKNLYFTDWKMNSVVALDLAISKETDAFQPHKQTRLYGITTALSQCPQGHNYCSVNNGGCTHLCLATPGSRTCRCPDNTLGVDCIEQK
B1: the “bound amount at transition to the saturation phase” value with laminin P1 stood at 600 RU.

(Values after patent US20010007020A1, “ANTIBODIES THAT BIND TO THE NIDOGEN-BINDING DOMAIN OF LAMININ, THEIR PRODUCTION AND USE” (HOECHST AKTIENGESELLSCHAFT, priority 1997, published 2001).)
